Laboratory results: patent US10183950B2, “Thienopyrimidine inhibitors of atypical protein kinase C” (Cancer Research Technology Limited, priority 2011, dated 2019)
Where two headings read alike, the source gives them in different places.

Target: T1, full-length human PKCι (Homo sapiens, UniProt P41743)
T1 construct: Recombinant, full-length human PKCι expressed in Sf21 insect cells is also commercially available; purchased; host or cells: Sf21 insect cells
T1 sequence (P41743 1-596): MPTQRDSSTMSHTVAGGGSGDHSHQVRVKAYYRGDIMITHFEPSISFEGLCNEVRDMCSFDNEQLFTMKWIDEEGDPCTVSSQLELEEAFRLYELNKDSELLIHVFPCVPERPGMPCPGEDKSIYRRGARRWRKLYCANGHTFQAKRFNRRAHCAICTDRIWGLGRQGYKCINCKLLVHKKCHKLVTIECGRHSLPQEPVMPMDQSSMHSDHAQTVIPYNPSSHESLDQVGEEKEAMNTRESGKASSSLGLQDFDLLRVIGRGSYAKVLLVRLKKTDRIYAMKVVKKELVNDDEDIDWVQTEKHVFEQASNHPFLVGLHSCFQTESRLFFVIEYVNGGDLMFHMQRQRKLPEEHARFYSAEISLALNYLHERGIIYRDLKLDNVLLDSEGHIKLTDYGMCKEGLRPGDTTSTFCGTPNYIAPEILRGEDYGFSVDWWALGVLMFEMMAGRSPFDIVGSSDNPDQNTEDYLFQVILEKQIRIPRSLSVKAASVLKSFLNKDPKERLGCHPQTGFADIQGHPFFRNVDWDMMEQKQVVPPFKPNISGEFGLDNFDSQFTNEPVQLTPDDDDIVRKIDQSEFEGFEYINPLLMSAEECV
Experiment: PKCι IC50 IMAP fluorescence polarisation assay, full-length enzyme
Format: biochemical
Conditions: full length PKCi at 15 μM ATP
Experimental: Assays are based on the ability of PKCι to phosphorylate a commercially available peptide substrate in vitro. […] Recombinant, full-length human PKCι expressed in Sf21 insect cells is also commercially available. Recombinant, kinase-domain human PKCι is expressed and purified in-house.
The procedure below explains how dose response curves for inhibitors of PKCι are obtained.
Compounds to be tested are dissolved in 100% DMSO. […] 1 μl is plated into 384 well black low-binding flat bottomed assay plates which are used immediately. Dilutions and additions of compound to assay plates are carried out using Matrix WellMate® and Matrix PlateMate® Plus liquid handling systems.
The final concentration of peptide substrate in the assay is 100 nM. […] Relevant controls are included, namely no compound and no enzyme. […] The reaction is allowed to incubate for 60 minutes at room temperature, before the reaction is stopped and developed by the addition of 20 μl IMAP™ development reagent (Molecular Devices). IMAP development reagent consists of 0.25% (v/v) IMAP progressive binding reagent, 17% (v/v) IMAP progressive binding buffer A and 3% (v/v) IMAP progressive binding buffer B. The plates are then incubated for 2 hours at room temperature before being read using an appropriate plate reader, for example a Molecular Devices HT Analyst or a BMG Pherastar.

[1] = read-out: IC50 in IMAP assay against full length PKCi (Activity)
[2] = read-out: IC50 in IMAP assay against full length PKCi

SMILES | IC50 [1] [nM] | IC50 [2] [nM]
Cc1sc2c(NCC(C)N)nc(-c3ccncc3)nc2c1Br (stereo in doubt) [compound 330, (R)-N*1*-(7-Bromo-6-methyl-2-pyridin-4-yl-thieno[3,2-d]pyrimidin-4-yl)-propane-1,2-diamine] | – | 1000 to 10000
NC(CNc1nc(-c2ccncc2F)nc2c(-c3cncnc3)csc12)Cc1ccccc1 (stereo in doubt) [compound 422, (R)-N*1*-[2-(3-Fluoro-pyridin-4-yl)-7-pyrimidin-5-yl-thieno[3,2-d]pyrimidin-4-yl]-3-phenyl-propane-1,2-diamine] | – | 1000 to 10000
NC(CNc1nc(-c2ccncc2F)nc2c(-c3ccc(CO)cc3)csc12)Cc1ccccc1 (stereo in doubt) [compound 424, {4-[4-((R)-2-Amino-3-phenyl-propylamino)-2-(3-fluoro-pyridin-4-yl)-thieno[3,2-d]pyrimidin-7-yl]-phenyl}-methanol] | – | 1000 to 10000
NC(CNc1nc(-c2ccncc2F)nc2c(-c3cccc(CO)c3)csc12)Cc1ccccc1 (stereo in doubt) [compound 425, {3-[4-((R)-2-Amino-3-phenyl-propylamino)-2-(3-fluoro-pyridin-4-yl)-thieno[3,2-d]pyrimidin-7-yl]-phenyl}-methanol] | – | 1000 to 10000
NC(CNc1nc(-c2ccncc2F)nc2c(-c3ccsc3)csc12)Cc1ccccc1 (stereo in doubt) [compound 431, (R)-N*1*-[2-(3-Fluoro-pyridin-4-yl)-7-thiophen-3-yl-thieno[3,2-d]pyrimidin-4-yl]-3-phenyl-propane-1,2-diamine] | – | 1000 to 10000
NC(CNc1nc(-c2ccncc2F)nc2c(-c3ccco3)csc12)Cc1ccccc1 (stereo in doubt) [compound 432, (R)-N*1*-[2-(3-Fluoro-pyridin-4-yl)-7-furan-2-yl-thieno[3,2-d]pyrimidin-4-yl]-3-phenyl-propane-1,2-diamine] | – | 100 to 1000
NCCNc1nc(-c2ccncc2)nc2sc3c(c12)CCN(C(=O)c1ccccc1)C3 [compound 27, [4-(2-Amino-ethylamino)-2-pyridin-4-yl-5,8-dihydro-6H-pyrido[4′,3′:4,5]thieno[2,3-d]pyrimidin-7-yl]-phenyl-methanone] | 10000 to 40000 | –
NCCNc1nc(-c2ccncc2)nc2sc3c(c12)CCSC3 [compound 44, N*1*-(2-Pyridin-4-yl-5,8-dihydro-6H-thio-pyrano[4′,3′:4,5]thieno[2,3-d]pyrimidin-4-yl)-ethane-1,2-diamine] | 1000 to 10000 | –
NCCNc1nc(-c2ccncc2)nc2sc3c(c12)CCOC3 [compound 45, N*1*-(2-Pyridin-4-yl-5,8-dihydro-6H-pyrano[4′3′:4,5]thieno[2,3-d]pyrimidin-4-yl)-ethane-1,2-diamine] | 10000 to 40000 | –
N[C@H](CNc1nc(-c2ccncc2)nc2sc3c(c12)CCCC3)Cc1ccc(F)cc1 [compound 50, (S)-3-(4-Fluoro-phenyl)-N*1*-(2-pyridin-4-yl-5,6,7,8-tetrahydro-benzo[4,5]thieno[2,3-d]pyrimidin-4-yl)-propane-1,2-diamine] | 1000 to 10000 | –
Cc1ccccc1C[C@H](N)CNc1nc(-c2ccncc2)nc2sc3c(c12)CCCC3 [compound 53, (S)-N*1*-(2-Pyridin-4-yl-5,6,7,8-tetrahydro-benzo[4,5]thieno[2,3-d]pyrimidin-4-yl)-3-o-tolyl-propane-1,2-diamine] | 100 to 1000 | –
COc1cccc(C[C@H](N)CNc2nc(-c3ccncc3)nc3sc4c(c23)CCCC4)c1 [compound 54, (S)-3-(3-Methoxy-phenyl)-N*1*-(2-pyridin-4-yl-5,6,7,8-tetrahydro-benzo[4,5]thieno[2,3-d]pyrimidin-4-yl)-propane-1,2-diamine] | 1000 to 10000 | –

More lines, now with the values ahead:

IC50 [1] [nM] | IC50 [2] [nM] | SMILES
1000 to 10000 | – | NC(CNc1nc(-c2ccncc2)nc2sc3c(c12)CCCC3)Cc1c[nH]c2ccccc12 (stereo in doubt) [compound 63, (S)-3-(1H-Indol-3-yl)-N*1*- (2-pyridin-4-yl-5,6,7,8-tetrahydro-benzo[4,5]thieno[2,3-d]pyrimidin-4-yl)-propane-1,2-diamine]
– | 1000 to 10000 | NC(CNc1nc(-c2ccncc2F)nc2c(-c3cccnc3)csc12)Cc1ccccc1 (stereo in doubt) [compound 423, (R)-N*1*-[2-(3-Fluoro-pyridin-4-yl)-7-pyridin-3-yl-thieno[3,2-d]pyrimidin-4-yl]-3-phenyl-propane-1,2-diamine]
– | 100 to 1000 | NC(CNc1nc(-c2ccncc2F)nc2c(-c3ccoc3)csc12)Cc1ccccc1 (stereo in doubt) [compound 426, (R)-N*1*-[2-(3-Fluoro-pyridin-4-yl)-7-furan-3-yl-thieno[3,2-d]pyrimidin-4-yl]-3-phenyl-propane-1,2-diamine]
– | 1000 to 10000 | NCc1ccc(-c2csc3c(NCC(N)Cc4ccccc4)nc(-c4ccncc4F)nc23)cc1 (stereo in doubt) [compound 427, (R)-N*1*-[7-(4-Aminomethyl-phenyl)-2-(3-fluoro-pyridin-4-yl)-thieno[3,2-d]pyrimidin-4-yl]-3-phenyl-propane-1,2-diamine]
– | 1000 to 10000 | Cc1noc(C)c1-c1csc2c(NCC(N)Cc3ccccc3)nc(-c3ccncc3F)nc12 (stereo in doubt) [compound 428, (R)-N*1*-[7-(3,5-Dimethyl-isoxazol-4-yl)-2-(3-fluoro-pyridin-4-yl)-thieno[3,2-d]pyrimidin-4-yl]-3-phenyl-propane-1,2-diamine]
– | 1000 to 10000 | NC(CNc1nc(-c2ccncc2F)nc2c(-c3ccncc3)csc12)Cc1ccccc1 (stereo in doubt) [compound 429, (R)-N*1*-[2-(3-Fluoro-pyridin-4-yl)-7-pyridin-4-yl-thieno[3,2-d]pyrimidin-4-yl]-3-phenyl-propane-1,2-diamine]
– | 1000 to 10000 | NC(CNc1nc(-c2ccncc2F)nc2c(-c3ccc(F)cc3)csc12)Cc1ccccc1 (stereo in doubt) [compound 430, (R)-N*1*-[7-(4-Fluoro-phenyl)-2-(3-fluoro-pyridin-4-yl)-thieno[3,2-d]pyrimidin-4-yl]-3-phenyl-propane-1,2-diamine]
100 to 1000 | – | NCCNc1nc(-c2ccncc2)nc2sc3c(c12)CCCC3 [compound 12, N*1*-(2-pyridin-4-yl-5,6,7,8-tetrahydro-benzo[4,5]thieno[2,3-d]pyrimidin-4-yl)-ethane-1,2-diamine]
1000 to 10000 | – | NCCNc1nc(-c2ccncc2)nc2sc3c(c12)CCC1(C3)OCCO1 [compound 42]
1000 to 10000 | – | CC1(C)CCc2c(sc3nc(-c4ccncc4)nc(NCCN)c23)C1 [compound 43, N*1*-(7,7-Dimethyl-2-pyridin-4-yl-5,6,7,8-tetrahydro-benzo[4,5]thieno[2,3-d]pyrimidin-4-yl)-ethane-1,2-diamine]
1000 to 10000 | – | Cc1ccc(C[C@H](N)CNc2nc(-c3ccncc3)nc3sc4c(c23)CCCC4)cc1 [compound 46]
100 to 1000 | – | COc1ccc(C[C@H](N)CNc2nc(-c3ccncc3)nc3sc4c(c23)CCCC4)cc1 [compound 47, (S)-3-(4-Methoxy-phenyl)-N*1*-(2-pyridin-4-yl-5,6,7,8-tetrahydro-benzo[4,5]thieno[2,3-d]pyrimidin-4-yl)-propane-1,2-diamine]
100 to 1000 | – | Cc1cccc(C[C@H](N)CNc2nc(-c3ccncc3)nc3sc4c(c23)CCCC4)c1 [compound 48, (S)-N*1*-(2-Pyridin-4-yl-5,6,7,8-tetrahydro-benzo[4,5]thieno[2,3-d]pyrimidin-4-yl)-3-m-tolyl-propane-1,2-diamine]
1000 to 10000 | – | COc1ccccc1C[C@H](N)CNc1nc(-c2ccncc2)nc2sc3c(c12)CCCC3 [compound 49, (S)-3-(2-methoxy-phenyl)-N*1*-(2-pyridin-4-yl-5,6,7,8-tetrahydro-benzo[4,5]thieno[2,3-d]pyrimidin-4-yl)-propane-1,2-diamine]
100 to 1000 | – | N[C@H](CNc1nc(-c2ccncc2)nc2sc3c(c12)CCCC3)Cc1ccccc1F [compound 51, (S)-3-(2-Fluoro-phenyl)-N*1*-(2-pyridin-4-yl-5,6,7,8-tetrahydro-benzo[4,5]thieno[2,3-d]pyrimidin-4-yl)-propane-1,2-diamine]
1000 to 10000 | – | N[C@@H](CNc1nc(-c2ccncc2)nc2sc3c(c12)CCCC3)Cc1cccc2ccccc12 [compound 52, (R)-3-Naphthalen-1-yl-N*1*- (2-pyridin-4-yl-5,6,7,8-tetrahydro-benzo[4,5]thieno[2,3-d]pyrimidin-4-yl)-propane-1,2-diamine]
